Experimental data reported in ChEMBL document CHEMBL1201862, “PubChem BioAssay data set” (2004).
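Cells were grown in 96-well plates and exposed to each compound for 48 hours at five concentrations; endpoints were interpolated linearly between bracketing concentrations, or set to the highest concentration if not reached. Here, GI50 denotes the concentration required for 50% inhibition of growth.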 Activity calls are given as the source filed them. Cut-off read from the data, not from the text of the source: active = GI50 up to about 1.1 µM and inactive = higher.

What was measured:
Assay in all cases: NCI-60 cell line screen, 48 h
[1] = test system: ACHN
[2] = test system: CCRF-CEM
[3] = test system: EKVX
[4] = test system: HCC 2998
[5] = test system: HL-60
[6] = test system: HT-29
[7] = test system: KM12
[8] = test system: LOX IMVI
[9] = test system: M14
[10] = test system: NCI-H226
[11] = test system: NCI-H23
[12] = test system: NCI-H460
[13] = test system: NCI-H522
[14] = test system: OVCAR-3
[15] = test system: PC-3
[16] = test system: RXF 393
[17] = test system: SF-268
[18] = test system: SK-OV-3
[19] = test system: UACC-257
[20] = test system: UO-31

SMILES | GI50 [1] | GI50 [2] | GI50 [3] | GI50 [4] | GI50 [5] | GI50 [6] | GI50 [7] | GI50 [8] | GI50 [9] | GI50 [10] | GI50 [11] | GI50 [12] | GI50 [13] | GI50 [14] | GI50 [15] | GI50 [16] | GI50 [17] | GI50 [18] | GI50 [19] | GI50 [20]
COc1ccc(CC2NCCc3cc(OC)c(OC)cc32)cc1Br (stereo not given) | 33 µM (inactive) | 29.2 µM (inactive) | 35.2 µM (inactive) | 18 µM (inactive) | 14 µM (inactive) | 19.1 µM (inactive) | 21.6 µM (inactive) | 19.1 µM (inactive) | 16.8 µM (inactive) | 18.6 µM (inactive) | 23 µM (inactive) | 21.2 µM (inactive) | 34.4 µM (inactive) | 76.6 µM (inactive) | 72.4 µM (inactive) | 15.1 µM (inactive) | 63.5 µM (inactive) | 96.4 µM (inactive) | 17.3 µM (inactive) | 28.2 µM (inactive)
Nc1nc(F)nc2c1ncn2C1OC(COP(=O)(O)O)C(O)C1O (stereo not given) | 32.1 µM (inactive) | 1.59 µM (inactive) | 45.9 µM (inactive) | 177 µM (inactive) | 5.4 µM (inactive) | 310 µM (inactive) | 266 µM (inactive) | 53.8 µM (inactive) | 6.4 µM (inactive) | 98.2 µM (inactive) | 19.6 µM (inactive) | 94 µM (inactive) | 63.1 µM (inactive) | 119 µM (inactive) | 16.6 µM (inactive) | 51.4 µM (inactive) | 76 µM (inactive) | 26.9 µM (inactive) | 146 µM (inactive) | 13.2 µM (inactive)
CN(C)[C@H]1CC[C@H]2[C@@H]3CCC4C[C@@H](NC(=O)NC(Cc5ccccc5)c5nccs5)CC[C@]4(C)[C@H]3CC[C@]12C (stereo not given in full) | 1.76 µM (inactive) | 0.29 µM (active) | 1.96 µM (inactive) | 1.75 µM (inactive) | 0.218 µM (active) | 0.33 µM (active) | 1.12 µM (inactive) | 1.66 µM (inactive) | 1.69 µM (inactive) | 2.09 µM (inactive) | 1.77 µM (inactive) | 1.06 µM (active) | 2 µM (inactive) | 0.853 µM (active) | 0.509 µM (active) | 1.54 µM (inactive) | 1.66 µM (inactive) | 1.67 µM (inactive) | 1.87 µM (inactive) | 1.69 µM (inactive)
CNC1C(=O)C(C)C(O)(C(CC(C)C(O)/C=C/C=C/CNC(=O)C(C)(C)C(O)\C(C)=C/C=C\C=C\Cc2cnc(C)o2)OC)C12C(=O)OC2C.CNC1C(=O)C(C)C(O)(C(CC(C)C(O)/C=C/C=C/CNC(=O)C(C)(C)C(O)\C(C)=C/C=C\C=C\Cc2cnc(C)o2)OC)C12C(=O)OC2COC (stereo not given) | 3.3 µM (inactive) | 0.614 µM (active) | 0.292 µM (active) | 13.3 µM (inactive) | 0.635 µM (active) | 3.27 µM (inactive) | 7.01 µM (inactive) | 14.2 µM (inactive) | 7.46 µM (inactive) | 0.668 µM (active) | 0.218 µM (active) | 15.2 µM (inactive) | 0.565 µM (active) | 1.56 µM (inactive) | 0.237 µM (active) | 17.3 µM (inactive) | 5.68 µM (inactive) | 19 µM (inactive) | 0.188 µM (active) | 10.5 µM (inactive)
O=C1OC(CN2CCN(c3ccccc3)CC2)CN1C(=S)Nc1ccccc1 (stereo not given) | > 100 µM (inactive) | > 100 µM (inactive) | > 100 µM (inactive) | > 100 µM (inactive) | > 100 µM (inactive) | 35.1 µM (inactive) | 88.3 µM (inactive) | > 100 µM (inactive) | > 100 µM (inactive) | > 100 µM (inactive) | > 100 µM (inactive) | 23.8 µM (inactive) | > 100 µM (inactive) | > 100 µM (inactive) | 84.7 µM (inactive) | > 100 µM (inactive) | > 100 µM (inactive) | > 100 µM (inactive) | > 100 µM (inactive) | > 100 µM (inactive)
CN(CCCNC(=O)c1cn(C)c2c1ccc1cc(Cl)c(Cl)cc12)CCCNC(=O)c1cn(C)c2c1ccc1cc(Cl)c(Cl)cc12 | 13.1 µM (inactive) | 8.53 µM (inactive) | 15.4 µM (inactive) | 4 µM (inactive) | 2.47 µM (inactive) | 14.8 µM (inactive) | 5.31 µM (inactive) | 5.74 µM (inactive) | 10.7 µM (inactive) | 22.1 µM (inactive) | 14.6 µM (inactive) | 3.97 µM (inactive) | 14.6 µM (inactive) | 18.2 µM (inactive) | 13.3 µM (inactive) | 4.42 µM (inactive) | 13.7 µM (inactive) | 15.2 µM (inactive) | 19.3 µM (inactive) | 16.7 µM (inactive)
O=C(Nc1nnc(-c2ccc(Cl)cc2)o1)C(SC(=S)N1CCCCC1)c1ccccc1 (stereo not given) | 15.7 µM (inactive) | 4.71 µM (inactive) | 20.7 µM (inactive) | 21.4 µM (inactive) | 8.59 µM (inactive) | 22.2 µM (inactive) | 24.8 µM (inactive) | 6.12 µM (inactive) | 13.2 µM (inactive) | 32.7 µM (inactive) | 21.9 µM (inactive) | 7.6 µM (inactive) | 17.6 µM (inactive) | 19.3 µM (inactive) | 22.4 µM (inactive) | 24.8 µM (inactive) | 6.5 µM (inactive) | 32.3 µM (inactive) | 21.7 µM (inactive) | 10.5 µM (inactive)
CCn1cc(C(=O)O)c(=O)c2cc3c(cc21)S(=O)(=O)CC3 | > 100 µM (inactive) | > 100 µM (inactive) | > 100 µM (inactive) | > 100 µM (inactive) | > 100 µM (inactive) | > 100 µM (inactive) | > 100 µM (inactive) | > 100 µM (inactive) | > 100 µM (inactive) | > 100 µM (inactive) | > 100 µM (inactive) | > 100 µM (inactive) | > 100 µM (inactive) | > 100 µM (inactive) | > 100 µM (inactive) | > 100 µM (inactive) | > 100 µM (inactive) | > 100 µM (inactive) | > 100 µM (inactive) | > 100 µM (inactive)
Cc1ccc(NC(=S)C#N)c(C)c1 | > 100 µM (inactive) | 24.2 µM (inactive) | > 93.5 µM (inactive) | > 100 µM (inactive) | 20.5 µM (inactive) | > 91.2 µM (inactive) | > 82.8 µM (inactive) | 73.1 µM (inactive) | 97.3 µM (inactive) | > 84.3 µM (inactive) | > 69.5 µM (inactive) | > 89.7 µM (inactive) | 46.7 µM (inactive) | 37.7 µM (inactive) | > 100 µM (inactive) | > 100 µM (inactive) | > 87.3 µM (inactive) | > 100 µM (inactive) | 63.2 µM (inactive) | 50 µM (inactive)
O=c1/c(=C/c2ccc([N+](=O)[O-])o2)sc2n1[C@@H](c1ccc3c(c1)OCO3)C=C(c1cc(F)c(Cl)cc1Cl)N=2 | 16.1 µM (inactive) | 3.24 µM (inactive) | 16.6 µM (inactive) | 12.9 µM (inactive) | 15.6 µM (inactive) | 17.1 µM (inactive) | 16.6 µM (inactive) | 17.2 µM (inactive) | 13.9 µM (inactive) | 46.7 µM (inactive) | 20.6 µM (inactive) | 17.8 µM (inactive) | 25.8 µM (inactive) | 16.8 µM (inactive) | 22 µM (inactive) | 16.1 µM (inactive) | 28.7 µM (inactive) | 46.5 µM (inactive) | 17.2 µM (inactive) | 16.7 µM (inactive)
